Assay results: patent US20250268870A1, “SMALL MOLECULE INDUCERS OF CARDIOMYOCYTES TO IMPROVE CARDIAC STRUCTURE AND FUNCTION” (UNIVERSITY OF MARYLAND, BALTIMORE, priority 2022, published 2025)

Experiments:
iDCM-CMs [1] = assay: PCNT / MTOC localization (centriolar, split, perinuclear) in C19-treated iDCM-CMs, quantitated by a blinded observer; format: cell-based, human; conditions: for initiation of the perinuclear MTOC: iDCM-CMs (cDCM-CMs) treated with C19
iDCM-CMs [2] = assay: Cell shortening (contractility) on Matrigel mattress, edge detection; format: cell-based, human
CMs = conditions: previously shown; cited from earlier work
iDCM-CMs [3] = assay: Sarcomere formation in C19-treated iDCM-CMs (confocal imaging); format: cell-based, human; conditions: C19-treated iDCM-CMs vs untreated iDCM-CMs
RTTN = assay: Knockdown of RTTN in zebrafish embryos: incidence of pericardial edema; format: in vivo; conditions: zebrafish embryos at 48 hours post-fertilization; Vehicle=8.4%
Method: Single mating pairs were bred overnight, and embryos were kept at 28.5° C., consistent with standard practices. Injections were performed using an Eppendorf™ FemtoJet 4i microinjector. Needles were pulled using a Sutter Instrument Co. Flaming/Brown Micropipette Puller Model P-97 with filaments from World Precision Instruments (Item #TW100F-4) (heat=90, pull=30, and velocity=7). The translational blocking morpholino oligonucleotide 5′-[…]-3′ (SEQ ID NO: 41) was purchased from GeneTools™. mRNA was generated from pcDNA-dCas9 (Addgene™) using the mMESSAGE mMACHINE T7 ULTRA Transcription Kit from Invitrogen™. Alt-R CRISPR-Cas9 sgRNA, sgRNA #1: 5′-[…]-3 (SEQ ID NO:42) and sgRNA #2: 5′-[…]-3′ (SEQ ID NO:43) were purchased from Integrated DNA Technologies. Wild-type NHGRI embryos were injected at the 1-2 cell stage with MO (6 ng) or dCas9 mRNA (1 ng) with or without the CRISPRi sgRNA (0.5 ng). At 8 hours post fertilization (hpf), E3 water was replaced with 0.003% 1-phenyl-2-thiourea (PTU) in E3, and the embryos remained in PTU until they were phenotyped for cardiac edema, and heart morphology at 48 hpf.

Molecule | initiation of the perinuclear MTOC (iDCM-CMs [1]) | initiation of the perinuclear MTOC (iDCM-CMs [1]; listed as C192) | PCNT perinuclear, % of CMs (iDCM-CMs [1]; iDCM-CMs + 10 μM C19 for 48 hours from D30, D32 CMs, control-CMs 23.1%, untreated iDCM-CMs 7.6%, p=0.0082) | cell shortening versus healthy control-CMs (iDCM-CMs [2]; D40 C19-treated iDCM-CMs vs control-CMs, p=0.682 (NS)) | contractility (% cell shortening) (iDCM-CMs [2]; D40 C19-treated iDCM-CMs vs untreated iDCM-CMs, p=0.001) | centrosome reduction in CMs (CMs) | sarcomere formation (iDCM-CMs [3]) | embryos with large pericardial edema (RTTN)
OCCCCOc1nsnc1-c1ccc(Cl)c(Cl)c1 [C19] | improved initiation of the perinuclear MTOC | restored initiation of the perinuclear MTOC | 23.6% | comparable levels of cell shortening | significantly improved | induce centrosome reduction | improved sarcomere formation | 
MO: translational blocking morpholino oligonucleotide 5′-TCTTTATGAGTGACGATAACTCCAT-3′ (SEQ ID NO: 41) against zebrafish RTTN (all phosphorodiamidate morpholino (PMO)) |  |  |  |  |  |  |  | 45.6%
